Laboratory results taken from patent US20050245508A1, “Treatment of malignant gliomas with TGF-beta inhibitors” (SCIOS, Inc., priority 2003, published 2005).

What was measured:
SMA-560 glioma cells = test: Flow cytometric cell cycle analysis; assay type: cell-based, murine; details: 0.01, 0.1 or 1 μM, 48 h, data not shown
Method: The adherent glioma cells were detached nonenzymatically using cell dissociation solution (Sigma). Cell cycle analysis was performed by using fixed and permeabilized glioma cells (70% ethanol). RNA was digested with RNase A (Life Technologies, Inc.). DNA was stained with propidium iodide (50 μg/ml).

LN-308 targets = test: Polyclonal NK cell lytic activity, 51Cr release; assay type: cell-based, human
Method: FIG. 3. Modulation of allogeneic anti-glioma immune responses by Compound No. 79 involves TGF-β antagonism. A. The lytic activity against LN-308 targets of PBL (squares) or purified T cells (triangles) preincubated with irradiated LN-308 cells in the absence (open symbols) or presence (filled symbols) of Compound No. 79 (1 μM) was determined in ^51Cr release assays. B-D. PBL were cultured in the absence (left) or presence (right) of irradiated LN-308 cells for 5 days. The cultures contained Compound No. 79 (1 μM) (filled bars) or not (open bars). Subsequently these effector cells were cocultured for 24 h with fresh non-irradiated LN-308 cells in the absence of Compound No. 79. The release of IFN-γ (B), TNF-α (C) or IL-10 (D) was assessed by Elispot assay. Data are expressed as cytokine-producing cells per 5×10^5 effector cells (n=3, *p<0.05, **p<0.01, t-test, effect of Compound No. 79). E, F. Polyclonal NK cell cultures were exposed to TGF-β1 (5 ng/ml) (E) or diluted (1:4) glioma cell SN (F), without or with Compound No. 79 (1 μM), for 48 h and subsequently used as effectors in ^51Cr release assays using LN-308 cells as targets. Compound No. 79 alone or TGF-β antibody alone had no effect on NK cell activity in these assays (data not shown).
Human PBMC were isolated from healthy donors by density gradient centrifugation (Biocoll, Biochrom KG). Monocytes were depleted by adhesion and differential centrifugation to obtain peripheral blood lymphocytes (PBL). To obtain purified T cells, the PBMC were depleted of B cells and monocytes using LymphoKwik T™ reagent (One Lambda Inc., Canoga Park, Calif.). […]
HLA-A2-mismatched PBL or T cells (107/25 cm2 flask) were cocultured with 106 irradiated (30 Gy) glioma cells for 5 days. […] The maximum 51Cr release was determined by addition of NP40 (1%). After 4 h the supernatants were transferred to a Luma-PlateTM-96 (Packard, Dreieich, Germany) and measured. The percentage of 51Cr release was calculated as follows: 100×([experimental release−spontaneous release]/[maximum release−spontaneous release]).

[1] = test system: SMA-560 intracranial experimental glioma; test: Syngeneic SMA-560 intracranial glioma in VM/Dk mice; assay type: in vivo
Method: FIG. 4. […] A. VM/Dk mice received an intracranial injection of 5×10^3 SMA-560 cells. […] B. The animals were treated as in A, but were sacrificed on day 10 to obtain splenocytes. IFN-γ release at 24 h was assessed by Elispot. Data are expressed as cytokine-producing cells per 10^6 effector cells. C. The splenocytes were stimulated with IL-2 for 10 days to generate LAK cells.
VM/Dk mice were purchased from the TSE Research Center (Berkshire, UK). Mice of 6-12 weeks of age were used in all experiments. The experiments were performed according to the German animal protection law. Groups of 7-8 mice were anesthesized before all intracranial procedures and placed in a stereotaxic fixation device (Stoelting, Wood Dale, Ill.). A burr hole was drilled in the skull 2 mm lateral to the bregma. The needle of a Hamilton syringe (Hamilton, Darmstadt, Germany) was introduced to a depth of 3 mm. […] The mice were observed daily and, in the survival experiments, sacrified when developing neurological symptoms, or sacrificed as indicated in the other experiments.

## Fc1ccc(Cl)cc1-c1nc(Nc2ccncc2)c2nccnc2n1 [Compound No. 79]
SMA-560 glioma cells
  cell cycle arrest: no specific type of cell cycle arrest
LN-308 targets; TGF-β1 5 ng/ml, 1 μM, 48 h, FIG. 3E
  TGF-β-mediated inhibition of NK cell lytic activity: relieved
LN-308 targets; supernatant diluted 1:4, 48 h, FIG. 3F
  inhibition of NK cell activity by LN-308 cell supernatants: blocked
LN-308 targets; without TGF-β or supernatant, data not shown
  NK cell activity, agent alone: no effect
[1]; 1 mg/ml in drinking water from day 3, data not shown
  development of neurological symptoms: delayed
[1]; 1 mg/ml in drinking water from day 3, control 0%
  survival rate at 30 days: 29%
[1]; 1 mg/ml in drinking water from day 3, vehicle 18
  median survival: 23 days
[1]; 1 mg/ml in drinking water from day 3, vehicle 18.6±2.1, p=0.004
  mean survival: 25.1 ± 6.5 days
[1]; drinking water 1 mg/ml
  dose-limiting toxicity: No dose-limiting toxicity has been reached
